Assays:
Format in all cases: cell-based
SU-DHL6 = test: Inhibition of tumor cell proliferation, CellTiter-Glo, SU-DHL6; settings: compound concentration 50 μM, 72 hours; for cell survival rate (% of control) at 50 µM: Homo sapiens, SU-DHL-6, read-out: Inhibitory activity against proliferation (cell survival rate) SU-DHL6
Method: (§1) For various cell lines, the corresponding complete medium was used, and culture was carried out in an incubator at 37° C. with 5% CO2. The cells were counted, and inoculated into a 96-well plate at 2000-10000 cells/100 μl per well according to the cell volume and growth rate. The suspended cells were treated immediately, and the adherent cells were treated after adherence. The CellTiter-Glo method was used to detect the changes in cell viability 72 hours after the administration, and the cell survival rate at different concentrations was calculated by a formula: Survival rate (%)=(RLU of treatment well−RLU of blank well)/(RLU of control well−RLU of blank well)×100.
(§2) Method for expressing the inhibitory activity of the compounds against the proliferation of tumor cells: Evaluation was made based on the cell survival rate at a compound concentration of 50 μM. 60≤survival rate (%)<90 is considered to have low inhibitory activity against the proliferation of tumor cells (+); 30<survival rate (%)≤60 is considered to have moderate inhibitory activity against the proliferation of tumor cells (++); and survival rate (%)≤30 is considered to have high inhibitory activity against the proliferation of tumor cells (+++).

RPMI-8226 = test: Inhibition of tumor cell proliferation, CellTiter-Glo, RPMI-8226; settings: compound concentration 50 μM, 72 hours; for cell survival rate (% of control) at 50 µM: Homo sapiens, RPMI-8226, read-out: Inhibitory activity against proliferation (cell survival rate) RPMI-8226
Method: as §1, §2

K562 = test: Inhibition of tumor cell proliferation, CellTiter-Glo, K562; settings: compound concentration 50 μM, 72 hours; for cell survival rate (%) at 50 µM: Homo sapiens, K562, read-out: Inhibitory activity against proliferation (cell survival rate) K562
Method: as §1, §2

A549 = test: Inhibition of tumor cell proliferation, CellTiter-Glo, A549; settings: compound concentration 50 μM, 72 hours; for cell survival rate (% of control) at 50 µM: Homo sapiens, A549, read-out: Inhibitory activity against proliferation (cell survival rate) A549
Method: as §1, §2

MDA-MB-453 = test: Inhibition of tumor cell proliferation, CellTiter-Glo, MDA-MB-453; settings: compound concentration 50 μM, 72 hours; for cell survival rate (%) at 50 µM: Homo sapiens, MDA-MB-453, read-out: Inhibitory activity against proliferation (cell survival rate) MDA-MB-453
Method: as §1, §2

BxPC-3 = test: Inhibition of tumor cell proliferation, CellTiter-Glo, BxPC-3; settings: compound concentration 50 μM, 72 hours; for cell survival rate (%) at 50 µM: Homo sapiens, BXPC-3, read-out: Inhibitory activity against proliferation (cell survival rate) BxPC-3
Method: as §1, §2

SMILES | Inhibitory activity against proliferation (cell survival rate) SU-DHL6 (SU-DHL6) | Inhibitory activity against proliferation (cell survival rate) RPMI-8226 (RPMI-8226) | Inhibitory activity against proliferation (cell survival rate) K562 (K562) | Inhibitory activity against proliferation (cell survival rate) A549 (A549) | Inhibitory activity against proliferation (cell survival rate) MDA-MB-453 (MDA-MB-453) | Inhibitory activity against proliferation (cell survival rate) BxPC-3 (BxPC-3) | cell survival rate (% of control) at 50 µM (SU-DHL6) [%] | cell survival rate (% of control) at 50 µM (RPMI-8226) [%] | cell survival rate (%) at 50 µM (K562) [%] | cell survival rate (% of control) at 50 µM (A549) [%] | cell survival rate (%) at 50 µM (MDA-MB-453) [%] | cell survival rate (%) at 50 µM (BxPC-3) [%]
O=C(/C=C\CN1CCN(CCNC=C2C(=O)CC(c3ccccc3)CC2=O)CC1)Nc1cccc2c1CN(C1CCC(=O)NC1=O)C2=O (centres unmarked) [Compound 93] | +++ (survival rate (%)≤30) | +++ (survival rate (%)≤30) | ++ (30<survival rate (%)≤60) | ++ (30<survival rate (%)≤60) | ++ (30<survival rate (%)≤60) | + (60≤survival rate (%)<90) |  |  |  |  |  | 
CCOC(=O)C1CC(=O)C(=CNc2cccc3c2CN(C2CCC(=O)NC2=O)C3=O)C(=O)C1 (centres unmarked) [Compound 134] | + (60≤survival rate (%)<90) | + (60≤survival rate (%)<90) | + (60≤survival rate (%)<90) | + (60≤survival rate (%)<90) | +++ (survival rate (%)≤30) | ++ (30<survival rate (%)≤60) |  |  |  |  |  | 
O=C1CCC(N2Cc3c(NC(=O)CCC(=O)N4CCN(CCNC=C5C(=O)CC(c6ccccc6)CC5=O)CC4)cccc3C2=O)C(=O)N1 (centres unmarked) [Compound 91] | ++ (30<survival rate (%)≤60) | ++ (30<survival rate (%)≤60) | ++ (30<survival rate (%)≤60) | ++ (30<survival rate (%)≤60) | ++ (30<survival rate (%)≤60) | + (60≤survival rate (%)<90) |  |  |  |  |  | 
O=C1CCC(N2Cc3c(NC=C4C(=O)CC(/C=C/c5ccccc5)CC4=O)cccc3C2=O)C(=O)N1 (centres unmarked) [Compound 120] | ++ (30<survival rate (%)≤60) | ++ (30<survival rate (%)≤60) | ++ (30<survival rate (%)≤60) | + (60≤survival rate (%)<90) | ++ (30<survival rate (%)≤60) | + (60≤survival rate (%)<90) |  |  |  |  |  | 
COc1ccc(C2CC(=O)C(=CNc3cccc4c3CN(C3CCC(=O)NC3=O)C4=O)C(=O)C2)cc1 (centres unmarked) [Compound 32] | +++ (survival rate (%)≤30) | +++ (survival rate (%)≤30) | +++ (survival rate (%)≤30) | +++ (survival rate (%)≤30) | ++ (30<survival rate (%)≤60) | + (60≤survival rate (%)<90) |  |  |  |  |  | 
O=C1CCC(N2Cc3c(NC=C4C(=O)CN(c5ccccc5)CC4=O)cccc3C2=O)C(=O)N1 (centres unmarked) [Compound 119] |  |  |  |  |  |  | 30 to 60 | 30 to 60 | 30 to 60 | 60 to 90 | 30 to 60 | 30 to 60
O=C1CCC(N2C(=O)c3cccc(OCCOCCOCCOCCN4CCN(CCNC=C5C(=O)CC(c6ccccc6)CC5=O)CC4)c3C2=O)C(=O)N1 (centres unmarked) [Compound 125] | +++ (survival rate (%)≤30) | +++ (survival rate (%)≤30) | + (60≤survival rate (%)<90) | + (60≤survival rate (%)<90) | +++ (survival rate (%)≤30) | ++ (30<survival rate (%)≤60) |  |  |  |  |  | 
CN(C)c1ccc(Br)c(C2CC(=O)C(=CNc3cccc4c3CN(C3CCC(=O)NC3=O)C4=O)C(=O)C2)c1 (centres unmarked) [Compound 31] | +++ (survival rate (%)≤30) | +++ (survival rate (%)≤30) | +++ (survival rate (%)≤30) | +++ (survival rate (%)≤30) | +++ (survival rate (%)≤30) | + (60≤survival rate (%)<90) |  |  |  |  |  | 
CC1(C#N)C(=O)/C(=C/Nc2cccc3c2CN(C2CCC(=O)NC2=O)C3=O)C(=O)CC1c1ccccc1 (centres unmarked) [Compound 139] |  |  |  |  |  |  | ≤ 30 | ≤ 30 | ≤ 30 | 60 to 90 | ≤ 30 | 60 to 90
O=C1CCC(N2Cc3c(N/C=C4\C(=O)Nc5c(ccc6ccccc56)C4=O)cccc3C2=O)C(=O)N1 (centres unmarked) [Compound 138] |  |  |  |  |  |  | ≤ 30 | 30 to 60 | 30 to 60 | ≤ 30 | ≤ 30 | 60 to 90
O=C1CCC(N2C(=O)c3cccc(NC(=O)OCc4ccc(NC=C5C(=O)CC(c6ccccc6)CC5=O)nc4)c3C2=O)C(=O)N1 (centres unmarked) [Compound 83] | + (60≤survival rate (%)<90) | + (60≤survival rate (%)<90) | + (60≤survival rate (%)<90) | + (60≤survival rate (%)<90) | ++ (30<survival rate (%)≤60) | + (60≤survival rate (%)<90) |  |  |  |  |  | 
Cc1ccccc1C1CC(=O)C(=CNc2cccc3c2CN(C2CCC(=O)NC2=O)C3=O)C(=O)C1 (centres unmarked) [Compound 4] | + (60≤survival rate (%)<90) | +++ (survival rate (%)≤30) | ++ (30<survival rate (%)≤60) | + (60≤survival rate (%)<90) | + (60≤survival rate (%)<90) | + (60≤survival rate (%)<90) |  |  |  |  |  | 
COc1ccc(C2CC(=O)C(=CNc3cccc4c3CN(C3CCC(=O)NC3=O)C4=O)C(=O)C2)c(OC)c1 (centres unmarked) [Compound 40] | + (60≤survival rate (%)<90) | + (60≤survival rate (%)<90) | +++ (survival rate (%)≤30) | +++ (survival rate (%)≤30) | + (60≤survival rate (%)<90) | ++ (30<survival rate (%)≤60) |  |  |  |  |  | 
O=C1CCC(N2Cc3ccc(NC=C4C(=O)CC(c5ccccc5)CC4=O)cc3C2=O)C(=O)N1 (centres unmarked) [Compound 10] | + (60≤survival rate (%)<90) | ++ (30<survival rate (%)≤60) | ++ (30<survival rate (%)≤60) | + (60≤survival rate (%)<90) | + (60≤survival rate (%)<90) | ++ (30<survival rate (%)≤60) |  |  |  |  |  | 
O=C1CCC(N2Cc3c(NC(=O)c4ccc(NC=C5C(=O)CC(c6ccccc6)CC5=O)nc4)cccc3C2=O)C(=O)N1 (centres unmarked) [Compound 66] | +++ (survival rate (%)≤30) | + (60≤survival rate (%)<90) | +++ (survival rate (%)≤30) | +++ (survival rate (%)≤30) | ++ (30<survival rate (%)≤60) | + (60≤survival rate (%)<90) |  |  |  |  |  | 
O=C1CCC(N2Cc3c(NC=C4C(=O)CC(C5CCCCC5)CC4=O)cccc3C2=O)C(=O)N1 (centres unmarked) [Compound 131] | + (60≤survival rate (%)<90) | +++ (survival rate (%)≤30) | ++ (30<survival rate (%)≤60) |  | +++ (survival rate (%)≤30) | + (60≤survival rate (%)<90) |  |  |  |  |  | 
